Assay results taken from ChEMBL document CHEMBL1201862, “PubChem BioAssay data set” (2004).
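Each compound was tested at five concentrations against cells in 96-well plates for 48 hours. The concentration for 50% growth inhibition is given as GI50.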 Activity calls are given as the source filed them. Cut-off read from the data, not from the text of the source: active = GI50 up to about 1.1 µM and inactive = higher.

Experiments:
Test in all cases: growth of human tumour cells (NCI), 48 h
HCT-116 = system: HCT-116
UO-31 = system: UO-31
PC-3 = system: PC-3
TK-10 = system: TK-10
T47D = system: T47D
SW-620 = system: SW-620
SNB-19 = system: SNB-19
SF-539 = system: SF-539
UACC-257 = system: UACC-257
EKVX = system: EKVX
RPMI-8226 = system: RPMI-8226
IGROV-1 = system: IGROV-1
K562 = system: K562
LOX IMVI = system: LOX IMVI
OVCAR-4 = system: OVCAR-4
OVCAR-8 = system: OVCAR-8
CCRF-CEM = system: CCRF-CEM
U-251 = system: U-251
OVCAR-5 = system: OVCAR-5
HL-60 = system: HL-60

Structure (SMILES): CC(C)(C)OCC1NC(=O)[C@@H]2Cc3c([nH]c4ccccc34)C(c3ccccc3)N2C1=O (stereo not given in full)
- GI50 (HCT-116): > 50 µM (inactive)
- GI50 (UO-31): > 50 µM (inactive)
- GI50 (PC-3): > 50 µM (inactive)
- GI50 (TK-10): > 50 µM (inactive)
- GI50 (T47D): > 50 µM (inactive)
- GI50 (SW-620): > 50 µM (inactive)
- GI50 (SNB-19): > 50 µM (inactive)
- GI50 (SF-539): 30.1 µM (inactive)
- GI50 (UACC-257): > 50 µM (inactive)
- GI50 (EKVX): > 50 µM (inactive)
- GI50 (RPMI-8226): > 21.6 µM (inactive)
- GI50 (IGROV-1): > 50 µM (inactive)
- GI50 (K562): > 30.1 µM (inactive)
- GI50 (LOX IMVI): > 50 µM (inactive)
- GI50 (OVCAR-4): > 50 µM (inactive)
- GI50 (OVCAR-8): > 50 µM (inactive)
- GI50 (CCRF-CEM): > 50 µM (inactive)
- GI50 (U-251): > 50 µM (inactive)
- GI50 (OVCAR-5): > 50 µM (inactive)
- GI50 (HL-60): > 26.2 µM (inactive)

Structure (SMILES): COc1cccc2c1Cc1cc(-c3ccccc3)[n+](C)n1-2
- GI50 (HCT-116): 3.5 µM (inactive)
- GI50 (UO-31): 22.5 µM (inactive)
- GI50 (PC-3): 11.4 µM (inactive)
- GI50 (TK-10): 28.8 µM (inactive)
- GI50 (T47D): 3.4 µM (inactive)
- GI50 (SW-620): 6.1 µM (inactive)
- GI50 (SNB-19): 28.9 µM (inactive)
- GI50 (SF-539): 5.4 µM (inactive)
- GI50 (UACC-257): 3.58 µM (inactive)
- GI50 (EKVX): 1.5 µM (inactive)
- GI50 (RPMI-8226): 4.18 µM (inactive)
- GI50 (IGROV-1): 12.5 µM (inactive)
- GI50 (K562): 3.26 µM (inactive)
- GI50 (LOX IMVI): 10 µM (inactive)
- GI50 (OVCAR-4): 3.19 µM (inactive)
- GI50 (OVCAR-8): 6.84 µM (inactive)
- GI50 (CCRF-CEM): 3.37 µM (inactive)
- GI50 (U-251): 5.36 µM (inactive)
- GI50 (OVCAR-5): 23.9 µM (inactive)
- GI50 (HL-60): 4.06 µM (inactive)

Structure (SMILES): COC(=O)c1ccc(NCC2=CC(=O)c3ccccc3C2=O)cc1
- GI50 (HCT-116): 17.8 µM (inactive)
- GI50 (UO-31): 16.1 µM (inactive)
- GI50 (PC-3): 14.3 µM (inactive)
- GI50 (TK-10): 22.2 µM (inactive)
- GI50 (T47D): 12.2 µM (inactive)
- GI50 (SW-620): 22.2 µM (inactive)
- GI50 (SNB-19): 31.4 µM (inactive)
- GI50 (SF-539): 23.4 µM (inactive)
- GI50 (UACC-257): 14.3 µM (inactive)
- GI50 (EKVX): 21.1 µM (inactive)
- GI50 (RPMI-8226): 6.32 µM (inactive)
- GI50 (IGROV-1): 12.2 µM (inactive)
- GI50 (K562): 3.44 µM (inactive)
- GI50 (LOX IMVI): 8.18 µM (inactive)
- GI50 (OVCAR-4): 14.2 µM (inactive)
- GI50 (OVCAR-8): 29.8 µM (inactive)
- GI50 (CCRF-CEM): 2.04 µM (inactive)
- GI50 (U-251): 22.9 µM (inactive)
- GI50 (OVCAR-5): 21.6 µM (inactive)
- GI50 (HL-60): 3.1 µM (inactive)

Structure (SMILES): Cc1c(/C=N/NC(=S)Nc2ccccc2Cl)c(=O)n(-c2ccccc2)n1C
- GI50 (HCT-116): 28.6 µM (inactive)
- GI50 (UO-31): 15.1 µM (inactive)
- GI50 (PC-3): 43 µM (inactive)
- GI50 (TK-10): 23.4 µM (inactive)
- GI50 (T47D): 13 µM (inactive)
- GI50 (SW-620): 39.9 µM (inactive)
- GI50 (SNB-19): 32.6 µM (inactive)
- GI50 (SF-539): 30.1 µM (inactive)
- GI50 (UACC-257): 34.2 µM (inactive)
- GI50 (EKVX): 45.5 µM (inactive)
- GI50 (RPMI-8226): 48.9 µM (inactive)
- GI50 (IGROV-1): 40.3 µM (inactive)
- GI50 (K562): 27.9 µM (inactive)
- GI50 (LOX IMVI): 55.3 µM (inactive)
- GI50 (OVCAR-4): 42.4 µM (inactive)
- GI50 (OVCAR-8): 27.7 µM (inactive)
- GI50 (CCRF-CEM): 11 µM (inactive)
- GI50 (U-251): 30.3 µM (inactive)
- GI50 (OVCAR-5): > 100 µM (inactive)
- GI50 (HL-60): 22.4 µM (inactive)

Structure (SMILES): O=C(O)c1ccccc1CC(Cc1ccccc1)C(=O)O (stereo not given)
- GI50 (HCT-116): > 100 µM (inactive)
- GI50 (UO-31): > 100 µM (inactive)
- GI50 (PC-3): > 100 µM (inactive)
- GI50 (TK-10): > 100 µM (inactive)
- GI50 (T47D): > 100 µM (inactive)
- GI50 (SW-620): > 100 µM (inactive)
- GI50 (SNB-19): > 100 µM (inactive)
- GI50 (SF-539): > 100 µM (inactive)
- GI50 (UACC-257): > 100 µM (inactive)
- GI50 (EKVX): > 100 µM (inactive)
- GI50 (RPMI-8226): > 100 µM (inactive)
- GI50 (IGROV-1): > 100 µM (inactive)
- GI50 (K562): > 100 µM (inactive)
- GI50 (LOX IMVI): > 100 µM (inactive)
- GI50 (OVCAR-4): > 100 µM (inactive)
- GI50 (OVCAR-8): > 100 µM (inactive)
- GI50 (CCRF-CEM): > 100 µM (inactive)
- GI50 (U-251): > 100 µM (inactive)
- GI50 (OVCAR-5): > 100 µM (inactive)
- GI50 (HL-60): > 100 µM (inactive)

Structure (SMILES): CC(=O)Nc1n[n+]([O-])c2cc(C)ccc2[n+]1[O-]
- GI50 (HCT-116): 2.08 µM (inactive)
- GI50 (UO-31): 3.38 µM (inactive)
- GI50 (PC-3): 1.81 µM (inactive)
- GI50 (TK-10): 22.8 µM (inactive)
- GI50 (T47D): 2.34 µM (inactive)
- GI50 (SW-620): 2.41 µM (inactive)
- GI50 (SNB-19): 4.98 µM (inactive)
- GI50 (SF-539): 1.99 µM (inactive)
- GI50 (UACC-257): 4.78 µM (inactive)
- GI50 (EKVX): 4.79 µM (inactive)
- GI50 (RPMI-8226): 2.83 µM (inactive)
- GI50 (IGROV-1): 1.48 µM (inactive)
- GI50 (K562): 1.94 µM (inactive)
- GI50 (LOX IMVI): 2.4 µM (inactive)
- GI50 (OVCAR-4): 4.38 µM (inactive)
- GI50 (OVCAR-8): 2.96 µM (inactive)
- GI50 (CCRF-CEM): 2.05 µM (inactive)
- GI50 (U-251): 2.92 µM (inactive)
- GI50 (OVCAR-5): 12 µM (inactive)
- GI50 (HL-60): 1.92 µM (inactive)

Structure (SMILES): COC(=O)[C@H]1[C@@H](O)[C@@]2(O)c3c(OC)cc(OC)cc3O[C@@]2(c2ccc3c(c2)OCO3)[C@@H]1c1ccccc1
- GI50 (HCT-116): < 0.005 µM (active)
- GI50 (UO-31): 0.00604 µM (active)
- GI50 (PC-3): 0.0113 µM (active)
- GI50 (TK-10): 0.00684 µM (active)
- GI50 (T47D): 0.00516 µM (active)
- GI50 (SW-620): < 0.005 µM (active)
- GI50 (SNB-19): < 0.005 µM (active)
- GI50 (SF-539): < 0.005 µM (active)
- GI50 (UACC-257): 0.00826 µM (active)
- GI50 (EKVX): 0.017 µM (active)
- GI50 (RPMI-8226): < 0.005 µM (active)
- GI50 (IGROV-1): 0.00518 µM (active)
- GI50 (K562): < 0.005 µM (active)
- GI50 (LOX IMVI): 0.00525 µM (active)
- GI50 (OVCAR-4): 0.0149 µM (active)
- GI50 (OVCAR-8): 0.0253 µM (active)
- GI50 (CCRF-CEM): 0.00607 µM (active)
- GI50 (U-251): 0.00706 µM (active)
- GI50 (OVCAR-5): 0.00953 µM (active)
- GI50 (HL-60): 0.00629 µM (active)
